Measured values as given in ChEMBL document CHEMBL4411285, “Design, synthesis, in silico pharmacokinetics prediction and biological evaluation of 1,4-dihydroindeno[1,2-c]pyrazole chalcone as EGFR /Akt pathway inhibitors” (Eur J Med Chem, 2019).
Active and inactive are the calls of the source. The rule behind the calls is not given here.

What was measured:
[1] = system: A549; assay: Cytotoxicity against human A549 cells after 24 hrs by MTT assay; format: functional, cell-based; conditions: A549, 24 h
[2] = system: HEK-293T; assay: Cytotoxicity against human HEK293T cells after 24 hrs by MTT assay; format: cell-based
[3] = system: MDA-MB-231; assay: Cytotoxicity against human MDA-MB-231 cells after 24 hrs by MTT assay; format: functional, cell-based; conditions: MDA-MB-231, 24 h
[4] = system: MCF7; assay: Cytotoxicity against human MCF7 cells after 24 hrs by MTT assay; format: functional, cell-based; conditions: MCF7, 24 h
[5] = system: SK-BR-3; assay: Cytotoxicity against human SKBR3 cells after 24 hrs by MTT assay; format: functional, cell-based; conditions: SK-BR-3, 24 h
[6] = system: HCT-116; assay: Cytotoxicity against human HCT116 cells after 24 hrs by MTT assay; format: functional, cell-based; conditions: HCT-116, 24 h
[7] = system: A549; assay: Cell cycle arrest in human A549 cells assessed as accumulation of cells at G0/G1 phase at 10 uM after 24 hrs by propidium iodide staining-based flow cytometric analysis (reference value: 71.1%); format: functional
[8] = system: A549; assay: Induction of apoptosis in human A549 cells assessed as increase in TP53 expression at 10 uM after 24 hrs by Western blot analysis; format: functional, cell-based
[9] = system: A549; assay: Induction of apoptosis in human A549 cells assessed as decrease in Bcl-2 expression at 10 uM after 24 hrs by Western blot analysis; format: functional, cell-based
[10] = system: A549; assay: Cell cycle arrest in human A549 cells assessed as accumulation of cells at G2/M phase at 10 uM after 24 hrs by propidium iodide staining-based flow cytometric analysis (reference value: 21.7%); format: functional
[11] = system: A549; assay: Downregulation of AKT expression in human A549 cells at 10 uM after 24 hrs by Hoechst staining-based immunocytochemistry; format: functional, cell-based
[12] = system: A549; assay: Cell cycle arrest in human A549 cells assessed as accumulation of cells at sub G1 phase at 10 uM after 24 hrs by propidium iodide staining-based flow cytometric analysis (reference value: 0.52%); format: functional
[13] = system: A549; assay: Induction of apoptosis in human A549 cells assessed as increase in BAX expression at 10 uM after 24 hrs by Western blot analysis; format: functional, cell-based
[14] = system: A549; assay: Cell cycle arrest in human A549 cells assessed as accumulation of cells at S phase at 10 uM after 24 hrs by propidium iodide staining-based flow cytometric analysis (reference value: 6.22%); format: functional
[15] = system: A549; assay: Downregulation of EGFR expression in human A549 cells at 10 uM after 24 hrs by Hoechst staining-based fluorescence assay; format: functional, cell-based
[16] = molecular target: Tubulin (Homo sapiens) (UniProt P68371+Q9H4B7+P0DPH7+P68366+Q13509+Q71U36+P04350+Q3ZCM7+P07437+P68363+Q9BQE3+Q6PEY2+Q13885+Q9BVA1+Q9BUF5); assay: Inhibition of tubulin network in human A549 cells at 10 uM after 24 hrs by Hoechst 33342 staining-based confocal microscopic analysis; format: cell-based
[17] = system: A549; assay: Inhibition of 3-D spheroids cell growth in human A549 cells at 10 uM after 25 days by crystal violet staining-based immunocytochemistry; format: functional

COc1ccc(C(=O)/C=C/c2[nH]nc3c2Cc2cc(OC)c(OC)cc2-3)cc1
IC50 [1]: 9.88 µM
IC50 [2]: 23 µM
IC50 [3]: 6.54 µM
IC50 [4]: 6.99 µM
IC50 [5]: 8.52 µM
IC50 [6]: 11.6 µM

C#Cc1cccc(Nc2ncnc3cc(OCCOC)c(OCCOC)cc23)c1 [ERLOTINIB]
IC50 [2]: 73 µM
IC50 [3]: 0.05 µM
Activity [7]: 64.1%
Activity [8]: Active
IC50 [4]: 12.4 µM
Activity [9]: Active
IC50 [5]: 3.98 µM
IC50 [6]: 7.31 µM
Activity [10]: 26%
Activity [11]: Active
Activity [12]: 1.71%
Activity [13]: Active
Activity [14]: 7.72%
Activity [15]: Active

COc1ccc(C(=O)/C=C/c2[nH]nc3c2Cc2ccc(OC)cc2-3)cc1
IC50 [1]: 13.3 µM
IC50 [2]: 45 µM
IC50 [3]: 6.21 µM
IC50 [4]: 9.18 µM
IC50 [5]: 10.2 µM
IC50 [6]: 13.2 µM

COc1cc2c(cc1OC)-c1n[nH]c(/C=C/C(=O)c3ccc4c(c3)OCO4)c1C2
IC50 [1]: 11.9 µM
IC50 [2]: 18 µM
IC50 [3]: 5.28 µM
IC50 [4]: 6.9 µM
IC50 [5]: 8.12 µM
IC50 [6]: 11.6 µM

COc1ccc2c(c1)-c1n[nH]c(/C=C/C(=O)c3ccc4c(c3)OCO4)c1C2
IC50 [1]: 12.4 µM
IC50 [2]: 54 µM
IC50 [3]: 9.31 µM
IC50 [4]: 9.99 µM
IC50 [5]: 12.5 µM
IC50 [6]: 13.7 µM

COc1ccc2c(c1)-c1n[nH]c(/C=C/C(=O)c3cc(OC)c(OC)c(OC)c3)c1C2
IC50 [1]: 3.82 µM
IC50 [2]: 32 µM
IC50 [3]: 5.89 µM
Activity [7]: 59.5%
Activity [8]: Active
IC50 [4]: 6.55 µM
Activity [9]: Active
IC50 [5]: 4.79 µM
IC50 [6]: 6.85 µM
Activity [10]: 29.6%
inhibition [16]: Active
Activity [11]: Active
Activity [12]: 2.36%
growth inhibition (GI) [17]: Active
Activity [13]: Active
Activity [14]: 7.99%
Activity [15]: Active

Nc1ccc(C(=O)/C=C/c2[nH]nc3c2Cc2ccccc2-3)cc1
IC50 [1]: 11.5 µM
IC50 [2]: 35 µM
IC50 [3]: 5.66 µM
IC50 [4]: 8.35 µM
IC50 [5]: 7.47 µM
IC50 [6]: 14.9 µM

COc1ccc2c(c1)-c1n[nH]c(/C=C/C(=O)c3ccc(OC)c(OC)c3)c1C2
IC50 [1]: 10.4 µM
IC50 [2]: 33 µM
IC50 [3]: 4.48 µM
IC50 [4]: 7.99 µM
IC50 [5]: 9.22 µM
IC50 [6]: 12.2 µM

COc1cc2c(cc1OC)-c1n[nH]c(/C=C/C(=O)c3cc(OC)c(OC)c(OC)c3)c1C2
IC50 [1]: 4.33 µM
IC50 [2]: 29 µM
IC50 [3]: 6.03 µM
Activity [7]: 51.1%
Activity [8]: Active
IC50 [4]: 6.83 µM
Activity [9]: Active
IC50 [5]: 4.97 µM
IC50 [6]: 5.9 µM
Activity [10]: 33.7%
inhibition [16]: Active
Activity [11]: Active
Activity [12]: 5.16%
growth inhibition (GI) [17]: Active
Activity [13]: Active
Activity [14]: 9.36%
Activity [15]: Active

COc1cc2c(cc1OC)-c1n[nH]c(/C=C/C(=O)c3ccc(N)cc3)c1C2
IC50 [1]: 9.73 µM
IC50 [2]: 20 µM
IC50 [3]: 6.4 µM
IC50 [4]: 7.5 µM
IC50 [5]: 9.23 µM
IC50 [6]: 8.34 µM

COc1ccc(C(=O)/C=C/c2[nH]nc3c2Cc2ccccc2-3)cc1OC
IC50 [1]: 13.4 µM
IC50 [2]: 38 µM
IC50 [3]: 6.82 µM
IC50 [4]: 10.1 µM
IC50 [5]: 11.4 µM
IC50 [6]: 20.5 µM

COc1ccc(C(=O)/C=C/c2[nH]nc3c2Cc2ccccc2-3)cc1
IC50 [1]: 14.3 µM
IC50 [2]: 21 µM
IC50 [3]: 10.1 µM
IC50 [4]: 11.5 µM
IC50 [5]: 14.7 µM
IC50 [6]: 10.8 µM

O=C(/C=C/c1[nH]nc2c1Cc1ccccc1-2)c1ccc2c(c1)OCO2
IC50 [1]: 16 µM
IC50 [2]: 17 µM
IC50 [3]: 14.5 µM
IC50 [4]: 12.4 µM
IC50 [5]: 17.3 µM
IC50 [6]: 13.8 µM

COc1cc(C(=O)/C=C/c2[nH]nc3c2Cc2ccccc2-3)cc(OC)c1OC
IC50 [1]: 10.9 µM
IC50 [2]: 25 µM
IC50 [3]: 5.52 µM
IC50 [4]: 8.49 µM
IC50 [5]: 8.64 µM
IC50 [6]: 12.8 µM

COc1ccc(C(=O)/C=C/c2[nH]nc3c2Cc2cc(OC)c(OC)cc2-3)cc1OC
IC50 [1]: 5.21 µM
IC50 [2]: 46 µM
IC50 [3]: 3.82 µM
Activity [7]: 45.9%
Activity [8]: Active
IC50 [4]: 6.94 µM
Activity [9]: Active
IC50 [5]: 5.11 µM
IC50 [6]: 6.66 µM
Activity [10]: 40.6%
inhibition [16]: Active
Activity [11]: Active
Activity [12]: 5.27%
growth inhibition (GI) [17]: Active
Activity [13]: Active
Activity [14]: 7.62%
Activity [15]: Active

COc1ccc2c(c1)-c1n[nH]c(/C=C/C(=O)c3ccc(N)cc3)c1C2
IC50 [1]: 11.3 µM
IC50 [2]: 19 µM
IC50 [3]: 11.9 µM
IC50 [4]: 11.2 µM
IC50 [5]: 12.5 µM
IC50 [6]: 19.8 µM
